Experimental data: patent EP3820845B1, “NOVEL, NEW GENERATION INHIBITOR COMPOUNDS SPECIFIC TO GST P1 ENZYME” (HACETTEPE ÜNIVERSITESI, priority 2018, dated 2020)
Like-named read-outs stand apart in the source and are kept apart here.

Key:
human-GST P1 (hGST P1) = human-GST P1 (hGST P1) (Homo sapiens, UniProt P09211); experiment: Spectrophotometric GST P1 enzyme inhibition test (GSH/CDNB conjugation), IC50 determination; assay type: biochemical; settings: spectrophotometric enzyme activity, ctapm1 concentrations between 0-100 µM; GraphPrism calculation; Figure 1
Procedure: Pure human-GST P1 (hGST P1) enzyme has been used as target protein in enzyme inhibition tests. "Ethacrynic acid" has been used as the model inhibitor compound. Ctapm1 (compound 1) compound which is a tetrahydrocarbazole derivative has been used as the basic precursor inhibitor for compounds that are designed, synthesized and are planned to be synthesized with advanced modifications.
The enzyme activity was determined over the activity of GST P1 enzyme which conjugated GSH and 1-chloro-2,4-dinitrobenzene (CDNB). The test medium was prepared to include 100 mM sodium phosphate buffer (pH 6.5) comprising 1 mM EDTA, 1 mM GSH, 1 mM CDNB and 5% ethanol and the temperature of the medium was determined as 30°C. The formation of a conjugate (GS-DNB) was monitored for 1 minute over the absorbance increase at 340 nm wavelength. The specific activity was calculated using 0.0096 µM^-1 cm ^-1 absorption coefficient. […] [formula] ΔA: Absorbance change (A340/minute.ml) Vr: Reaction volume (ml) d: Dilution factor ε: Molar absorption coefficient (9,6 mM^-1, cm^-1) ℓ: Light path (0,524 cm for 1 cm microplate measurements for Standard spectrophotometry vessel, Ve: Volume added to the stock enzyme reaction medium (ml) […]
In order to determine IC50 values of compounds both the standard spectrophotometric method and the microplate kinetic reading method was used together. […]

GST P1 = GST P1 (Homo sapiens, UniProt P09211); experiment: Enzyme kinetic analysis with GST P1 (GSH- and CDNB-dependent Michaelis-Menten / Lineweaver-Burk), Ki inhibition constants; assay type: biochemical; settings: Figure 2
Procedure: Figure 1. IC50 dose(Log)-inhibition graph of the spectrophotometric enzyme activity of GST P1 at concentrations of the ctapm1 compound between 0-100 µM. Figure 2. kinetic analysis results of ctapm1 compound with GST P1. A and C are the GSH and CDNB dependent Michaelis-Menten graphic of the ctapm1 compound and B and D are the GSH and CDNB dependent Lineweaver-Burk graphs of the ctapm1 compound. Figure 3. The schematic view of the THC fragment, its load distribution and elemental features. 2-dimension schematic view (a) of "2,3,4,9-tetrahydro-1H-carbazole"in (shortly tetra hydro or THC) and the load distribution (b) of the THC fragment. […]
The enzyme activity was determined over the activity of GST P1 enzyme which conjugated GSH and 1-chloro-2,4-dinitrobenzene (CDNB). The test medium was prepared to include 100 mM sodium phosphate buffer (pH 6.5) comprising 1 mM EDTA, 1 mM GSH, 1 mM CDNB and 5% ethanol and the temperature of the medium was determined as 30°C. The formation of a conjugate (GS-DNB) was monitored for 1 minute over the absorbance increase at 340 nm wavelength. The specific activity was calculated using 0.0096 µM^-1 cm ^-1 absorption coefficient. […]

Sequence of GST P1 (P09211 2-210 limits assumed): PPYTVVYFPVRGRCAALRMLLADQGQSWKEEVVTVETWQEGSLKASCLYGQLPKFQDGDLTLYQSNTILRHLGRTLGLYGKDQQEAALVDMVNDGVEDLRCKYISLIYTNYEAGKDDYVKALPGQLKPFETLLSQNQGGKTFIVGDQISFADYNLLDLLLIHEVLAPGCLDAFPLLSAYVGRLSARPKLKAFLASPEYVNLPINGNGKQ
Sequence of human-GST P1 (hGST P1) (P09211 2-210 limits assumed): as above

IC50 (human-GST P1 (hGST P1)): 1070 nM | Ki (GST P1; competitive type, read-out: Ki inhibition constant against CDNB): 1700 nM | Ki (GST P1; non-competitive type, read-out: Ki inhibition constant against GSH): 1740 nM
SMILES: S=c1[nH]nc(C2CCc3[nH]c4ccccc4c3C2)[nH]1 (stereo not drawn) [Compound 1, 3-(2,3,4,9-tetrahydro-1H-carbazole-3-yl)-1H-1,2,4-triazole-5(4H)-thione]
